28 compounds from patent US9056832B2, “Pyridine compounds and the users thereof” (Purdue Pharma L.P., priority 2010, dated 2015) can be followed below.

Molecules are shown by their SMILES.

Chain of human Nav1.7 (Q15858 other isoform, or with tags, fused parts or gaps): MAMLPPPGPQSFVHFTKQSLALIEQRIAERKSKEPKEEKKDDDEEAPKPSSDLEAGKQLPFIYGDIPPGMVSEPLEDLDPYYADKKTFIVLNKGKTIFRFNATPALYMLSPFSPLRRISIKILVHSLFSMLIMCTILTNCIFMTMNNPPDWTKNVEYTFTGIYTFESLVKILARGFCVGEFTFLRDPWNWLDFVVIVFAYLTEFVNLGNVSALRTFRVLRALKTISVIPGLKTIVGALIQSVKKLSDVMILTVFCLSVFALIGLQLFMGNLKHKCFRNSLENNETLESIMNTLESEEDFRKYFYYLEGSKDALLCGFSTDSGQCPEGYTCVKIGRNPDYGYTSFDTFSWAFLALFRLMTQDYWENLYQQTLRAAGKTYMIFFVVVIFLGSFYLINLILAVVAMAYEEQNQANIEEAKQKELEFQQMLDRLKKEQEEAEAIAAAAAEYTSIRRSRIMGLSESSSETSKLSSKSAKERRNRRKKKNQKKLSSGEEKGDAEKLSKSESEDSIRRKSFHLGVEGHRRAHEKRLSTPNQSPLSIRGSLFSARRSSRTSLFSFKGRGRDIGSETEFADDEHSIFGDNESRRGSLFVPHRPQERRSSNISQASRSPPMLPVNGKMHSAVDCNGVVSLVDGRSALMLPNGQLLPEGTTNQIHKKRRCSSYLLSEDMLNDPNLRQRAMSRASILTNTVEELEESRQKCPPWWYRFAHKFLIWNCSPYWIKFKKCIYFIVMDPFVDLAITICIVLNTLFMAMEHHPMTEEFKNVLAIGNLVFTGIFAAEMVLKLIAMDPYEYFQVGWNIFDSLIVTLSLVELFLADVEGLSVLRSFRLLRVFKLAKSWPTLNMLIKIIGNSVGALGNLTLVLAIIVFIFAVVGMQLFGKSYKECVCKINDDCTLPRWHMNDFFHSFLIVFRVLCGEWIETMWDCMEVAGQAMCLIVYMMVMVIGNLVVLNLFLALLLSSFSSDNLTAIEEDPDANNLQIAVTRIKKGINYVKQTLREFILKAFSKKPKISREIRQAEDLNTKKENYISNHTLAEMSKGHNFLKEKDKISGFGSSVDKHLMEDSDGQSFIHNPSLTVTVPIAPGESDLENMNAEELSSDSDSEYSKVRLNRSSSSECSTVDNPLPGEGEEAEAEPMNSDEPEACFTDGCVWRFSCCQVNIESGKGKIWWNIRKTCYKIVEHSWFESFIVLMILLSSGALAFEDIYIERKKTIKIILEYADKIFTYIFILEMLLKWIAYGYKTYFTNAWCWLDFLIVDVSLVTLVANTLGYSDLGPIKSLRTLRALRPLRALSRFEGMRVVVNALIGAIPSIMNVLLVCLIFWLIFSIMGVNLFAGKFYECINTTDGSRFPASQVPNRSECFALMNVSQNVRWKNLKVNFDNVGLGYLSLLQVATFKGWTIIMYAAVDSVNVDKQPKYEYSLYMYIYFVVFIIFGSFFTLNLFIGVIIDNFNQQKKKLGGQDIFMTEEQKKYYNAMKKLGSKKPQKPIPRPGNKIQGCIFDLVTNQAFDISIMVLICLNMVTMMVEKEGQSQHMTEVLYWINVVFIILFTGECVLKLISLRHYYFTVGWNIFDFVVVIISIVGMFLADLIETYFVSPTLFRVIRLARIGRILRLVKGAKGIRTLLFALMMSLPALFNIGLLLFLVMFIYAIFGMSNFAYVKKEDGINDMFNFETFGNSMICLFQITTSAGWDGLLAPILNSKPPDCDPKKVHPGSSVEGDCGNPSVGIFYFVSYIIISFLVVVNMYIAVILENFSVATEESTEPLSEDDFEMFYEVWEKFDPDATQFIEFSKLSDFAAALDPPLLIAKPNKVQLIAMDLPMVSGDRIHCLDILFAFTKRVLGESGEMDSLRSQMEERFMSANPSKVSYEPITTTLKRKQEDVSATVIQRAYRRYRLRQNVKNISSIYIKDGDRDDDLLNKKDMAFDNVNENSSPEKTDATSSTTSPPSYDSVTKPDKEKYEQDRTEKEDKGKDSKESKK

One assay has as its target human Nav1.7 (Homo sapiens (Human), UniProt Q15858). Put plainly: FLIPR or FLIPR TETRA sodium dye assay with KCl and test article pre-incubation. The note with it: read-out: Nav1.7 IC50 (μM) ± SEM. In kind it is cell-based.
As for `Cc1cc(C(=O)NCCN2CCCCC2)cc(-c2ccc(Oc3ccc(F)cc3)cc2)n1` [compound 107, 2-(4-(4-fluorophenoxy)phenyl)-6-methyl-N-(2-(piperidin-1-yl)ethyl) isonicotinamide], the IC50 was determined as 0.4 ± 0.12 µM.

With `N#Cc1cc(NCCCn2ccnc2)cc(-c2ccc(Oc3ccc(F)cc3)cc2)n1` [compound 110, 4-((3-(1H-imidazol)-1-yl)propyl)amino)-6-(4-(4-fluorophenoxy) phenylpicolinonitrile], the IC50 came to 0.62 ± 0.08 µM.

On to `OC[C@H](O)c1cc(NCCN2CCOCC2)cc(-c2ccc(Oc3ccc(F)cc3)cc2)n1` [compound 111], for which the 50% inhibitory concentration (IC50) came out at 0.71 ± 0.13 µM.

In the case of `CN(c1ccccc1)c1cc(C(=O)O)nc(-c2ccc(Oc3ccc(F)cc3)cc2)c1` [compound 114, 6-(4-(4-fluorophenoxy)phenyl)-4-(methyl(phenyl)amino)picolinic acid], the IC50 worked out at 0.68 ± 0.6 µM. Take `CN(c1ccc(C(=O)O)cc1)c1cc(C(=O)O)nc(-c2ccc(Oc3ccc(F)cc3)cc2)c1` [compound 117, 4-((4-carboxyphenyl)(methy)amino)-6-(4-(4-fluorophenoxy)phenyl) picolinic acid]: the IC50 is more than 20 µM. Turning to `N#CCCN(c1ccccc1)c1cc(C(=O)O)nc(-c2ccc(Oc3ccc(F)cc3)cc2)c1` [compound 118, 4-((2-cyanoethyl) (phenyl)amino)-6-(4-(4fluorophenoxy)phenyl)picolinic acid], the IC50 is 2.5 ± 0.3 µM. As for `CN(c1ccc(C(=O)O)cc1)c1cc(-c2ccc(Oc3ccc(F)cc3)cc2)cc(C(=O)O)n1` [compound 120, 6-((4-carboxyphenyl) (methy)amino)-4-(4-(4-fluorophenoxy)phenyl) picolinic acid], the IC50 was determined as 9.3 ± 0.54 µM.

The same assay, now with this note: recombinant human Nav1.7 in HEK293 cells; CoroNa Green sodium dye; veratridine + scorpion venom; read-out: Nav1.7 IC50 (μM) ± SEM.
Consider `NC(=O)c1cc(-c2ccc(Oc3ccc(F)cc3)cc2)nc([C@@H](O)CO)c1` [compound 89, (R)-2-(1,2-dihydroxyethyl)-6-(4-(4-fluorophenoxy)phenyl) isonicotinamide], for which the IC50 was found to be 7.13 ± 0.5 µM.

With `CN(c1ccc(C(=O)O)cc1)c1cc(C(N)=O)nc(-c2ccc(Oc3ccc(F)cc3)cc2)c1` [compound 91, 4-((2-carbamoyl-6-(4-(4-fluorophenoxy)phenyl)pyridin-4-yl)(methyl)amino)benzoic acid], the IC50 is more than 20 µM. Take `O=C(O)CN(c1ccccc1)c1cc(C(=O)O)nc(-c2ccc(Oc3ccc(F)cc3)cc2)c1` [compound 92, 4-((carboxymethyl) (phenyl)amino)-6-(4-(4-fluorophenoxy)phenyl)picolinic acid]: the IC50 came to 3.83 ± 0.64 µM. For `O=C(O)c1cc(-n2cc(C(=O)O)c3ccccc32)cc(-c2ccc(Oc3ccc(F)cc3)cc2)n1` [compound 93, 1-(2-carboxy-6-(4-(4-fluorophenoxy)phenyl)pyridin-4-yl)-1H-indole-3-carboxylic acid], the IC50 was more than 20 µM. `N#CCCN(c1ccccc1)c1cc(-c2ccc(Oc3ccc(F)cc3)cc2)cc(C(=O)O)n1` [compound 94, 6-((2-cyanoethyl) (phenyl)amino)-4-(4-(4-fluorophenoxy)phenyl)picolinic acid]: the IC50 was determined as 2.17 ± 0.66 µM. For `NC(=O)c1cc(-c2ccc(Oc3ccc(F)cc3)cc2)cc([C@H](O)CO)n1` [compound 95, (S)-6-(1,2-dihydroxyethyl)-4-(4-(4-fluorophenoxy)phenyl)picolinamide], the IC50 came to 0.17 ± 0.08 µM.

Regarding `NC(=O)c1cc(-c2ccc(Oc3ccc(F)cc3)cc2)cc([C@@H](O)CO)n1` [compound 96, (R)-6-(1,2-dihydroxyethyl)-4-(4-(4-fluorophenoxy)phenyl)picolinamide], the IC50 came out at 0.12 ± 0.03 µM. Same read-out and setting: the value for `NC(=O)CN(c1ccccc1)c1cc(-c2ccc(Oc3ccc(F)cc3)cc2)cc(C(N)=O)n1` [compound 98, 6-((2-amino-2-oxoethyl)(phenyl)amino)-4-(4-(4-fluorophenoxy)phenyl)picolinamide] was 0.22 ± 0.07 µM; that for `N#Cc1cccc2c1ccn2-c1cc(C(N)=O)nc(-c2ccc(Oc3ccc(F)cc3)cc2)c1` [compound 99, 4-(4-cyano-1H-indol-1-yl)-6-(4-(4-fluorophenoxy)phenyl) picolinamide] was 0.1 ± 0.03 µM.

Consider `N#Cc1cccc2c1ccn2-c1cc(-c2ccc(Oc3ccc(F)cc3)cc2)cc(C(N)=O)n1` [compound 100, 6-(4-cyano-1H-indol-1-yl)-4-(4-(4-fluorophenoxy)phenyl) picolinamide], for which the IC50 turned out to be 0.27 ± 0.03 µM. On the same count and under the same terms, the value for `N#Cc1cccc2c1ccn2-c1cc(C(=O)O)nc(-c2ccc(Oc3ccc(F)cc3)cc2)c1` [compound 101, 4-(4-cyano-1H-indol-1-yl)-6-(4-(4-fluorophenoxy)phenyl) picolinic acid] was 0.27 ± 0.08 µM; that for `NC(=O)c1cc(CN2CCN(CC(=O)O)CC2)cc(-c2ccc(Oc3ccc(F)cc3)cc2)n1` [compound 104, 2-(4-((2-carbamoyl-6-(4-(4-fluorophenoxy)phenyl)pyridine-4-yl)methyl)piperazin-1-yl) acetic acid] was 2.7 ± 0.26 µM; that for `O=C1NCCN1CCNCc1ccnc(-c2ccc(Oc3ccc(F)cc3)cc2)c1` [compound 105, 1-(2-(((2-(4-(4-fluorophenoxy)phenyl)pyridin-4-yl)methyl)amino)ethyl) imidazolidin-2-one] was 0.53 ± 0.08 µM.

`N#Cc1cc(CNCCN2CCNC2=O)cc(-c2ccc(Oc3ccc(F)cc3)cc2)n1` [compound 106, 6-(4-(4-fluorophenoxy)phenyl)-4-(((2-(2-oxoimidazolidin-1-yl)ethyl)amino)methyl) picolinonitrile]: the IC50 worked out at 2.01 ± 0.44 µM. As to `NC(=O)CN1CCN(c2cc(Cl)nc(-c3ccc(Oc4ccc(F)cc4)cc3)c2)CC1` [compound 109, 2-(4-(2-chloro-6-(4-(4-fluorophenoxy)phenyl)pyridine-4-yl)piperazin-1-yl) acetamide], the IC50 was 3.77 ± 0.56 µM.

`N#Cc1cc([C@H](O)CO)cc(-c2ccc(Oc3ccc(F)cc3)cc2)n1` [compound 112, (S)-4-(1,2-dihydroxyethyl)-6-(4-(4-fluorophenoxy)phenyl)picolinonitrile]: the IC50 was found to be 2.12 ± 0.54 µM. Turning to `CN(c1ccccc1)c1cc(-c2ccc(Oc3ccc(F)cc3)cc2)cc(C(N)=O)n1` [compound 113, 4-(4-(4-fluorophenoxy)phenyl)-6-(methyl(phenyl)amino)picolinamide], the IC50 worked out at 0.36 ± 0.8 µM. In the case of `N#CCCN(c1ccccc1)c1cc(-c2ccc(Oc3ccc(F)cc3)cc2)cc(C(N)=O)n1` [compound 115, 6-((2-cyanoethyl) (phenyl)amino)-4-(4-(4-fluorophenoxy)phenyl)picolinamide], the IC50 is 0.08 ± 0.03 µM. As for `CN(c1ccc(C(=O)O)cc1)c1cc(-c2ccc(Oc3ccc(F)cc3)cc2)cc(C(N)=O)n1` [compound 116, 4-((6-carbamoyl-4-(4-(4-fluorophenoxy)phenyl)pyridin-2-yl) (methyl)amino)benzoic acid], the IC50 came out at 2.71 ± 0.73 µM. Take `CN(c1ccccc1)c1cc(-c2ccc(Oc3ccc(F)cc3)cc2)cc(C(=O)O)n1` [compound 119, 4-(4-(4-fluorophenoxy)phenyl)-6-(methyl (phenyl)amino) picolinic acid]: the IC50 was found to be 2.46 ± 0.8 µM. On the same count and under the same terms, the value for `O=C(O)CN(c1ccccc1)c1cc(-c2ccc(Oc3ccc(F)cc3)cc2)cc(C(=O)O)n1` [compound 121, 6-((carboxymethyl) (phenyl)amino)-4-(4-(4-fluorophenoxy)phenyl)picolinic acid] was 6.24 ± 0.81 µM.
